According to patent publication US6977261B2, “Azaisoquinoline derivatives as matrix metalloproteinase inhibitors” (Warner-Lambert Company LLC, priority 2002, dated 2005):

Biological target: human MMP-13 catalytic domain (hMMP-13CD) (Homo sapiens, UniProt P45452)
Experiment: Inhibition of MMP-13 catalytic domain (thiopeptolide substrate assay)
Type: biochemical
Description: The assays measure the amount by which a test compound reduces the hydrolysis of a thiopeptolide substrate catalyzed by a matrix metalloproteinase enzyme. Such assays are described in detail by Ye et al., in Biochemistry, 1992;31(45):11231-11235, which is incorporated herein by reference. One such assay is described below in Biological Method 1.
Some of the particular methods described below use the catalytic domain of the MMP-13 enzyme, namely matrix metalloproteinase-13 catalytic domain (“MMP-13CD”), rather than the corresponding full-length enzyme, MMP-13. It has been shown previously by Ye Qi-Zhuang, Hupe D., and Johnson L. (Current Medicinal Chemistry, 1996;3:407-418) that inhibitor activity against a catalytic domain of an MMP is predictive of the inhibitor activity against the respective full-length MMP enzyme.
Thiopeptolide substrates show virtually no decomposition or hydrolysis at or below neutral pH in the absence of a matrix metalloproteinase enzyme. A typical thiopeptolide substrate commonly utilized for assays is Ac-Pro-Leu-Gly-thioester-Leu-Leu-Gly-OEt. […] The change in absorbance at 405 nm is monitored on a Thermo Max microplate reader (molecular Devices, Menlo Park, Calif.) at room temperature (22° C.). […]
Some representative compounds of Formula I have been evaluated for their ability to inhibit MMP-13. […]

IC50: > 50 µM
SMILES: O=C(O)c1ccc(Cn2ccc3ccc(C#CCn4ccnn4)cc3c2=O)cc1 [4-[1-oxo-7-(3-[1,2,3]triazol-1-ylprop-1-ynyl)-1H-isoquinolin-2-ylmethyl]benzoic acid]
